Non-standard residues stand in square brackets, D forms with d. Residues, ends and D or L forms follow the SMILES beside them. Tle = CC(C)(C)[C@H](N)C(=O)O
Tests used:
NTS1 [1] = target: T1, NTS1 (Homo sapiens, UniProt P30989); experiment: Binding to HT29 cell membranes (competition with 125I-Tyr3-neurotensin); conditions: 50 pM 125I-Tyr3-neurotensin, 45 min room temperature
T1 construct: endogenous in cells; host or cells: HT29 cells (membranes or living cells)
Description: Membrane bound activity was recovered by filtration onto Whatman GF/B filters presoaked for 1 hour with polyethyleneimine (0.2% in water) and rinsed twice with buffer. Non-specific binding was evaluated in the presence of 10^-6 M neurotensin. Radioactivity was counted and results were analyzed with GraphPad Prism® (GraphPad Software, Inc. San Diego, Calif.). All experiments were performed three times in triplicate. Ki values for binding to HT29 cell membranes and IC50 for binding to cells were used to evaluate affinity (Table 2).

NTS1 [2] = target: T1, NTS1; experiment: Binding to living HT29 cells (competition); conditions: 60 min 37° C., tracer [Lys6(DTPA(111In))]-NT, the labeled DTPA(111In)-peptide itself, or 125I-NT (DOTA-peptides)
Description: After washing the wells twice with ice-cold DMEM 0.2% BSA, cells were lysed in 500 μL 0.1N NaOH and radioactivity was counted. Non-specific binding was evaluated in the presence of 10^-6 M neurotensin. Competition curves were analyzed with the “Equilibrium Expert” software (Raguin et al., Anal. Biochem. (2002) 310, 1-14). All experiments were performed three times in triplicate. Ki values for binding to HT29 cell membranes and IC50 for binding to cells were used to evaluate affinity (Table 2).

T1 sequence (P30989 whole entry): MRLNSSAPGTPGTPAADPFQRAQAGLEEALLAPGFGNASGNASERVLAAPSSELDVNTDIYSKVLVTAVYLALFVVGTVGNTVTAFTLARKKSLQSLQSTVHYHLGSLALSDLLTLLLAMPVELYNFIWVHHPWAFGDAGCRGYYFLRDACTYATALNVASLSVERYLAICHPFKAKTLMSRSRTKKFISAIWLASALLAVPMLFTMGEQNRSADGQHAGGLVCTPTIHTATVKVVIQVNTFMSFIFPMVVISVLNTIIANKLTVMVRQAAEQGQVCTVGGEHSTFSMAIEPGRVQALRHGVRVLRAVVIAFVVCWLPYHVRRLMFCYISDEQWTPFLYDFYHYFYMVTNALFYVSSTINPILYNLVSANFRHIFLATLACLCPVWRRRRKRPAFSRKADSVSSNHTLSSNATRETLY

Ki (NTS1 [1])	IC50 (NTS1 [2])	Compound
0.26 ± 0.07 nM	2.46 ± 0.79 nM	CC(=O)N[C@@H](CCCCN)C(=O)N1CCC[C@H]1C(=O)N[C@@H](CCCNC(=N)N)C(=O)N[C@@H](CCCNC(=N)N)C(=O)N1CCC[C@H]1C(=O)N[C@@H](Cc1ccc(O)cc1)C(=O)N[C@H](C(=O)N[C@@H](CC(C)C)C(=O)O)C(C)(C)C [NT-20.2, Ac-Lys-Pro-Arg-Arg-Pro-Tyr-Tle-Leu-OH] (Ac-KPRRPY[Tle]L-OH)
0.072 ± 0.019 nM	0.82 ± 0.08 nM	CC[C@H](C)[C@H](NC(=O)[C@H](Cc1ccc(O)cc1)NC(=O)[C@@H]1CCCN1C(=O)[C@H](CCCNC(=N)N)NC(=O)[C@H](CCCNC(=N)N)NC(=O)[C@@H]1CCCN1C(=O)[C@H](CCCCN)NC(C)=O)C(=O)N[C@@H](CC(C)C)C(=O)O [NT-20.1]
